Experimental data: US4472304A, “(Amido)N-substituted bleomycins, salts thereof and process for preparation thereof” (Nippon Kayaku Kabushiki Kaisha, priority 1981, dated 1984)

What was measured:
[1] = system: Mycobacterium smegmatis ATCC 607; experiment: Antimicrobial activity against Mycobacterium smegmatis ATCC 607 (agar plate-cylinder); assay type: cell-based; conditions: standard bleomycin A2 (copper-free) assumed 1,000 mcg potency/mg
Procedure: (§1) 2. ANT[…] MYC[…] ATCC 607 AND BACILLUS SUBTILIS
(§2) The antimicrobial activity was tested against the captioned test organisms by the method of agar plate-cylinder. The activity was recorded on the assumption that the activity of standard sample of bleomycin A2 (copper-free form) is 1,000 mcg poteney/mg.

Bacillus subtilis = experiment: Antimicrobial activity against Bacillus subtilis (agar plate-cylinder); assay type: cell-based; conditions: standard bleomycin A2 (copper-free) assumed 1,000 mcg potency/mg
Procedure: as §1, §2

pulmonary fibrosis = experiment: Pulmonary toxicity (pulmonary fibrosis) in mice; conditions: for Incidence: Number of mice with pulmonary fibrosis (%) / Incidence: Number of mice with pulmonary fibrosis / Grade: Total score of pulmonary fibrosis/total number of samples / Grade: Total score of pulmonary fibrosis/total number of samples (%): ICR mice, 5 mg/kg i.p. once a day for 10 days; for Incidence: Number of mice with pulmonary fibrosis (%) / Incidence: Number of mice with pulmonary fibrosis: 5 weeks observation; for Incidence: Number of mice with pulmonary fibrosis: mice with fibrosis/total; for Grade: Total score of pulmonary fibrosis/total number of samples / Grade: Total score of pulmonary fibrosis/total number of samples (%): points 0, 1, 2, 4, 6; for Ratio (by comparison with "Bleomycin Complex"): versus Bleomycin Complex

| Compound | Antimicrobial potency of Cu-free compound against Mycobacterium smegmatis ATCC 607 [1] [mcg potency/mg] | Antimicrobial potency of Cu-free compound against Bacillus subtilis (Bacillus subtilis) [mcg potency/mg] | Incidence: Number of mice with pulmonary fibrosis (%) (pulmonary fibrosis) | Incidence: Number of mice with pulmonary fibrosis (pulmonary fibrosis) | Grade: Total score of pulmonary fibrosis/total number of samples (pulmonary fibrosis) | Grade: Total score of pulmonary fibrosis/total number of samples (%) (pulmonary fibrosis) | Ratio (by comparison with "Bleomycin Complex") (pulmonary fibrosis) |
| --- | --- | --- | --- | --- | --- | --- | --- |
| CCCCNCCCN(C)CCCNC(=O)c1csc(-c2csc(CCNC(=O)C(NC(=O)C(C)C(O)C(C)NC(=O)C(NC(=O)c3nc(C(CC(N)=O)NCC(N)C(=O)NCCCN(C)CCCNCCCC)nc(N)c3C)C(OC3OC(CO)C(O)C(O)C3OC3OC(CO)C(O)C(OC(N)=O)C3O)c3cnc[nH]3)C(C)O)n2)n1 (centres unmarked) [Compound 38, 3-[N--methyl-N--(3-n-butylaminopropyl)amino]propylamino-(amido)N--{3-[N--methyl-N--(3-n-butylaminopropyl)amino]-propyl}-BLM] | 5100 | 6600 | 71 | 5/7 | 7/21 | 33 | 0.32 |
| Cc1c(N)nc(C(CC(N)=O)NCC(N)C(=O)NCCCNC(C)c2ccccc2)nc1C(=O)NC(C(=O)NC(C)C(O)C(C)C(=O)NC(C(=O)NCCc1nc(-c2nc(C(=O)NCCCN(C)CCCNCc3ccc(Cl)cc3)cs2)cs1)C(C)O)C(OC1OC(CO)C(O)C(O)C1OC1OC(CO)C(O)C(OC(N)=O)C1O)c1cnc[nH]1 [Compound 39, 3-{N--methyl-N--[3-(p-chlorobenzyl)aminopropyl]amino}-propylamino-(amino)N--[3-(S)-1'-phenylethyl)aminopropyl]-BLM] | 14880 | 2590 | 20 | 2/9 | 2/27 | 7 | 0.07 |
| Cc1c(N)nc(C(CC(N)=O)NCC(N)C(=O)NCCCNC(C)c2ccccc2)nc1C(=O)NC(C(=O)NC(C)C(O)C(C)C(=O)NC(C(=O)NCCc1nc(-c2nc(C(=O)NCCCN(C)CCCNCCc3ccc(Cl)cc3)cs2)cs1)C(C)O)C(OC1OC(CO)C(O)C(O)C1OC1OC(CO)C(O)C(OC(N)=O)C1O)c1cnc[nH]1 [Compound 43, 3-{N--methyl-N--[3-(2-(p-chlorophenyl)ethyl)aminopropyl]amino}-propylamino-(amido)N--[3-((S)-1'-phenylethyl)aminopropyl]-BLM] | 15593 | 4267 | 0 | 0/1 | 0/3 | 0 | 0 |
| Cc1c(N)nc(C(CC(N)=O)NCC(N)C(=O)NCCCN(C)CCCNCCc2ccc(Cl)cc2)nc1C(=O)NC(C(=O)NC(C)C(O)C(C)C(=O)NC(C(=O)NCCc1nc(-c2nc(C(=O)NCCCN(C)CCCNCCc3ccc(Cl)cc3)cs2)cs1)C(C)O)C(OC1OC(CO)C(O)C(O)C1OC1OC(CO)C(O)C(OC(N)=O)C1O)c1cnc[nH]1 (centres unmarked) [Compound 45, 3-{N--methyl-N--[3-(2-(p-chlorophenyl)ethyl)aminopropyl]amino}-propylamino(amido)N--{3-[N-- methyl-N--[3-(2-(p-chlorophenyl)-ethyl)aminopropyl]amino]propyl}-BLM] | 650 | 270 | 0 | 0/9 | 0/27 | 0 | 0 |
| Cc1c(N)nc(C(CC(N)=O)NCC(N)C(=O)NCCCNC(C)c2ccccc2)nc1C(=O)NC(C(=O)NC(C)C(O)C(C)C(=O)NC(C(=O)NCCc1nc(-c2nc(C(=O)NCCC[N+](C)(CCCN(Cc3ccccc3)Cc3ccccc3)Cc3ccccc3)cs2)cs1)C(C)O)C(OC1OC(CO)C(O)C(O)C1OC1OC(CO)C(O)C(OC(N)=O)C1O)c1cnc[nH]1 [Compound 47, 3-{N--methyl-N--benzyl-N--[3-(dibenzylamino)propylamino}-propylamino-(amido)N--[3-((S)-1'-phenylethyl)aminopropyl]-BLM] | 5900 | 180 | 0 | 0/8 | 0/24 | 0 | 0 |
| CCCCCCCCNC(=O)C(N)CNC(CC(N)=O)c1nc(N)c(C)c(C(=O)NC(C(=O)NC(C)C(O)C(C)C(=O)NC(C(=O)NCCc2nc(-c3nc(C(=O)NCCC[N+](C)(CCCN(Cc4ccccc4)Cc4ccccc4)Cc4ccccc4)cs3)cs2)C(C)O)C(OC2OC(CO)C(O)C(O)C2OC2OC(CO)C(O)C(OC(N)=O)C2O)c2cnc[nH]2)n1 (centres unmarked) [Compound 48, 3-{N--methyl-N--benzyl-N--[3-dibenzylamino)proplyamino}-propylamino-(amido)N--[octyl]-BLM] | 2580 | 130 | 0 | 0/8 | 0/24 | 0 | 0 |
| Cc1c(N)nc(C(CC(N)=O)NCC(N)C(=O)NCCC[N+](C)(CCCN(Cc2ccccc2)Cc2ccccc2)Cc2ccccc2)nc1C(=O)NC(C(=O)NC(C)C(O)C(C)C(=O)NC(C(=O)NCCc1nc(-c2nc(C(=O)NCCC[N+](C)(CCCN(Cc3ccccc3)Cc3ccccc3)Cc3ccccc3)cs2)cs1)C(C)O)C(OC1OC(CO)C(O)C(O)C1OC1OC(CO)C(O)C(OC(N)=O)C1O)c1cnc[nH]1 (centres unmarked) [Compound 49, 3-{N--methyl-N--benzyl-N--[3-(dibenzylamino)propylamino}-propylamino-(amido)N--{3-{N--methyl-N--benzyl-N--[3-dibenzyl-amino)propyl]amino}propyl}-BLM] | 230 | 1 | 0 | 0/3 | 0/9 | 0 | 0 |
| Cc1c(N)nc(C(CC(N)=O)NCC(N)C(=O)NCc2ccccc2)nc1C(=O)NC(C(=O)NC(C)C(O)C(C)C(=O)NC(C(=O)NCCc1nc(-c2nc(C(=O)NCCC[N+](C)(CCCN(Cc3ccccc3)Cc3ccccc3)Cc3ccccc3)cs2)cs1)C(C)O)C(OC1OC(CO)C(O)C(O)C1OC1OC(CO)C(O)C(OC(N)=O)C1O)c1cnc[nH]1 (centres unmarked) [Compound 51, 3-{N--methyl-N--benzyl-N--[3-(dibenzylamino)propyl]amino}-propylamino-(amido)N--[benzyl]-BLM] | 24461 | 410 | 0 | 0/8 | 0/24 | 0 | 0 |
